Literature values in US12268663B2, “Method for treating pruritus” (Pruvyc Pharma, LLC, priority 2020, dated 2025).

Legend:
[1] = system: connective tissue mast cells
[2] = target: histamine H1 receptor (Homo sapiens, UniProt P35367)
[3] = target: serotonin S2 receptor (Homo sapiens, UniProt P28223)
serotonin S2 receptor, sequence (P28223 whole entry): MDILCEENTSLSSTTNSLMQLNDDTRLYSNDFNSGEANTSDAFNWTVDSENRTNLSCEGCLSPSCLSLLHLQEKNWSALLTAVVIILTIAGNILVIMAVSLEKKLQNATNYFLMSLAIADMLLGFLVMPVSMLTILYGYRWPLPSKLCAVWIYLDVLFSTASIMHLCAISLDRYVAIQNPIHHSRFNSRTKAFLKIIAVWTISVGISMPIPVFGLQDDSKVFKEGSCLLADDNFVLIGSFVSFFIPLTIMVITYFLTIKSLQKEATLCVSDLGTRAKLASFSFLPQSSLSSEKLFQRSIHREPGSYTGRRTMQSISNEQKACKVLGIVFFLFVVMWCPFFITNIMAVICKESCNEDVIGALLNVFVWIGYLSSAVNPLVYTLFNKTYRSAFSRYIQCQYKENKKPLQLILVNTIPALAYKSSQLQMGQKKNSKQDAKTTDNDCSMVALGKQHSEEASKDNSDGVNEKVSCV

histamine H1 receptor, sequence (P35367 whole entry): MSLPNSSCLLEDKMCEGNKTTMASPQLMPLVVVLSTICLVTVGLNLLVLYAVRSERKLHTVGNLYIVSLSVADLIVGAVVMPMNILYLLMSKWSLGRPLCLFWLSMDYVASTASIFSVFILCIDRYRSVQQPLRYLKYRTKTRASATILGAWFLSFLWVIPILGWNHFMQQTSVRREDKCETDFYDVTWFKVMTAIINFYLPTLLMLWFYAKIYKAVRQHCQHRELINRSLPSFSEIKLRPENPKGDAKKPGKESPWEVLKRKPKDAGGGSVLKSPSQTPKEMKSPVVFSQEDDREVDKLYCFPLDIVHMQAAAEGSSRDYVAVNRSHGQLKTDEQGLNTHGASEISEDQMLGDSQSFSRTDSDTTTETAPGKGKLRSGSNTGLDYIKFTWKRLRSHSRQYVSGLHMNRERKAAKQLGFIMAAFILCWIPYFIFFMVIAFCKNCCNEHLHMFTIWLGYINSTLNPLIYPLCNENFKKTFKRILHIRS

SMILES: CN(C)CC/C=C1/c2ccccc2COc2ccc(CC(=O)O)cc21 [Olopatadine, olopatadine]
- allergic mediator release from connective tissue mast cells [1]: inhibits allergic mediator release
- binding to histamine H1 receptor [2]: bind
- binding to serotonin S2 receptor [3]: bind
